Source: ChEMBL document CHEMBL1201862, “PubChem BioAssay data set” (2004)
Active and inactive are the calls of the source.

Columns and labels:
[1] = target: Fibroblast growth factor receptor 1 (Homo sapiens, UniProt P11362); assay type: functional
[2] = target: Glycogen synthase kinase-3 beta (Homo sapiens, UniProt P49841); assay type: functional;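 also: value comes from a broad kinome profiling panel, with GSK3B as the panel member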
[3] = target: ALK tyrosine kinase receptor (Homo sapiens, UniProt Q9UM73); assay type: functional;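 also: ALK tested as one member of a kinase panel screen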
[4] = target: Hepatocyte growth factor receptor (Homo sapiens, UniProt P08581); assay type: functional;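 also: kinase panel profiling across the kinome, with MET as the panel member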
[5] = target: Receptor-type tyrosine-protein kinase FLT3 (Homo sapiens, UniProt P36888); assay type: functional;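 also: FLT3 was tested as one member of a kinome-wide kinase panel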
[6] = target: Mitogen-activated protein kinase 8 (Homo sapiens, UniProt P45983); assay type: functional;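 also: value comes from one member of a kinome-wide kinase profiling panel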
[7] = target: Serine/threonine-protein kinase pim-1 (Homo sapiens, UniProt P11309); assay type: functional
[8] = target: High affinity nerve growth factor receptor (Homo sapiens, UniProt P04629); assay type: functional;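 also: NTRK1 tested as one member of a kinome-wide profiling panel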
[9] = target: Dual specificity tyrosine-phosphorylation-regulated kinase 1B (Homo sapiens, UniProt Q9Y463); test: Navigating the Kinome. Panel member name: DYRK1B; assay type: functional
[10] = target: Cyclin-dependent kinase 19 (Homo sapiens, UniProt Q9BWU1); test: Navigating the Kinome. Panel member name: CDC2L6; assay type: functional
[11] = target: Leucine-rich repeat serine/threonine-protein kinase 2 (Homo sapiens, UniProt Q5S007); assay type: functional;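 also: value from a broad kinome-wide panel profiling study in which LRRK2 was one of the kinases tested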
[12] = target: Serine/threonine-protein kinase D3 (Homo sapiens, UniProt O94806); assay type: functional;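 also: determined within a kinase panel screen, with PRKCN as the panel member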
[13] = target: Platelet-derived growth factor receptor beta (Homo sapiens, UniProt P09619); assay type: functional;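 also: value comes from a kinome panel, with PDGFRB tested as one panel member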
[14] = target: cAMP-dependent protein kinase catalytic subunit PRKX (Homo sapiens, UniProt P51817); assay type: functional
[15] = target: Aurora kinase A (Homo sapiens, UniProt O14965); assay type: functional;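 also: value from the Navigating the Kinome kinase panel profiling, panel entry STK6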
[16] = target: Cyclin-dependent kinase 9 (Homo sapiens, UniProt P50750); assay type: functional;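 also: value from the CDK9 entry of a kinome-spanning kinase panel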
[17] = target: Serine/threonine-protein kinase PLK1 (Homo sapiens, UniProt P53350); assay type: functional;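 also: PLK1 measured as one member of a kinome-wide profiling panel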
[18] = target: Death-associated protein kinase 3 (Homo sapiens, UniProt O43293); assay type: functional;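 also: measured as one member of a kinome-wide profiling panel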
[19] = target: Rho-associated protein kinase 1 (Homo sapiens, UniProt Q13464); assay type: functional;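 also: measured within a broad kinome-wide panel profiling many kinases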
[20] = target: Serine/threonine-protein kinase PLK3 (Homo sapiens, UniProt Q9H4B4); assay type: functional
[21] = target: Dual specificity protein kinase CLK4 (Homo sapiens, UniProt Q9HAZ1); assay type: functional
[22] = target: cAMP-dependent protein kinase catalytic subunit alpha (Homo sapiens, UniProt P17612); assay type: functional
[23] = target: RAC-gamma serine/threonine-protein kinase (Homo sapiens, UniProt Q9Y243); assay type: functional
[24] = target: Dual specificity protein kinase CLK2 (Homo sapiens, UniProt P49760); assay type: functional
[25] = target: Vascular endothelial growth factor receptor 2 (Homo sapiens, UniProt P35968); assay type: functional
[26] = target: 5'-AMP-activated protein kinase catalytic subunit alpha-1 (Homo sapiens, UniProt Q13131); assay type: functional
[27] = target: Platelet-derived growth factor receptor alpha (Homo sapiens, UniProt P16234); test: Navigating the Kinome. Panel member name: PDGFRA; assay type: functional
[28] = target: Serine/threonine-protein kinase pim-3 (Homo sapiens, UniProt Q86V86); assay type: functional;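 also: value obtained as one member of a broad kinase panel profiling effort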
[29] = target: Activated CDC42 kinase 1 (Homo sapiens, UniProt Q07912); test: Navigating the Kinome. Panel member name: ACK1; assay type: functional
[30] = target: LIM domain kinase 1 (Homo sapiens, UniProt P53667); test: Navigating the Kinome. Panel member name: LIMK1; assay type: functional
[31] = target: RAC-alpha serine/threonine-protein kinase (Homo sapiens, UniProt P31749); assay type: functional;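 also: AKT1 affinity measured as one member of a kinome-wide kinase profiling panel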
[32] = target: Activin receptor type-1 (Homo sapiens, UniProt Q04771); test: Navigating the Kinome. Panel member name: ACVR1; assay type: functional
[33] = target: Protein kinase C theta type (Homo sapiens, UniProt Q04759); test: Navigating the Kinome. Panel member name: PRKCQ; assay type: functional
[34] = target: Inhibitor of nuclear factor kappa-B kinase subunit epsilon (Homo sapiens, UniProt Q14164); test: Navigating the Kinome. Panel member name: IKBKE; assay type: functional
[35] = target: Mitogen-activated protein kinase kinase kinase kinase 4 (Homo sapiens, UniProt O95819); assay type: functional
[36] = target: Serine/threonine-protein kinase Nek2 (Homo sapiens, UniProt P51955); assay type: functional
[37] = target: Aurora kinase B (Homo sapiens, UniProt Q96GD4); assay type: functional
[38] = target: Cyclin-dependent kinase 7 (Homo sapiens, UniProt P50613); assay type: functional;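 also: value comes from a kinome-wide kinase profiling panel in which CDK7 is one member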
[39] = target: Dual specificity tyrosine-phosphorylation-regulated kinase 1A (Homo sapiens, UniProt Q13627); assay type: functional;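 also: measured against DYRK1A as one member of a broad kinome profiling panel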
[40] = target: Cyclin-dependent kinase 8 (Homo sapiens, UniProt P49336); test: Navigating the Kinome. Panel member name: CDK8; assay type: functional
[41] = target: Macrophage colony-stimulating factor 1 receptor (Homo sapiens, UniProt P07333); assay type: functional;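 also: value comes from the Navigating the Kinome screening panel, CSF1R member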
[42] = target: Tyrosine-protein kinase receptor TYRO3 (Homo sapiens, UniProt Q06418); assay type: functional;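 also: TYRO3 value obtained as one member of a kinome-wide profiling panel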
[43] = target: Calcium/calmodulin-dependent protein kinase type II subunit alpha (Homo sapiens, UniProt Q9UQM7); test: Navigating the Kinome. Panel member name: CAMK2A; assay type: functional
[44] = target: Leukocyte tyrosine kinase receptor (Homo sapiens, UniProt P29376); test: Navigating the Kinome. Panel member name: LTK; assay type: functional
[45] = target: Peroxisome proliferator-activated receptor gamma/Nuclear receptor corepressor 2 (Homo sapiens, UniProt P37231+Q9Y618); test: Counterscreen for NR2E3 inverse agonists: TR-FRET-based biochemical high throughput dose response assay to identify inverse agonists of the interaction between peroxisome proliferator-activated receptor gamma (PPARg) and nuclear receptor co-repressor 2 (NCOR2).; assay type: functional
[46] = test system: HEK293; test: cells; details: Homo sapiens
[47] = target: T1, Apoptotic protease-activating factor 1 (Homo sapiens, UniProt O14727); test: SAR analysis of small molecule inhibitors of Apaf-1 in a Fluorescent assay.; assay type: functional; details: read-out: IC50_Mean
T1 sequence (O14727 whole entry): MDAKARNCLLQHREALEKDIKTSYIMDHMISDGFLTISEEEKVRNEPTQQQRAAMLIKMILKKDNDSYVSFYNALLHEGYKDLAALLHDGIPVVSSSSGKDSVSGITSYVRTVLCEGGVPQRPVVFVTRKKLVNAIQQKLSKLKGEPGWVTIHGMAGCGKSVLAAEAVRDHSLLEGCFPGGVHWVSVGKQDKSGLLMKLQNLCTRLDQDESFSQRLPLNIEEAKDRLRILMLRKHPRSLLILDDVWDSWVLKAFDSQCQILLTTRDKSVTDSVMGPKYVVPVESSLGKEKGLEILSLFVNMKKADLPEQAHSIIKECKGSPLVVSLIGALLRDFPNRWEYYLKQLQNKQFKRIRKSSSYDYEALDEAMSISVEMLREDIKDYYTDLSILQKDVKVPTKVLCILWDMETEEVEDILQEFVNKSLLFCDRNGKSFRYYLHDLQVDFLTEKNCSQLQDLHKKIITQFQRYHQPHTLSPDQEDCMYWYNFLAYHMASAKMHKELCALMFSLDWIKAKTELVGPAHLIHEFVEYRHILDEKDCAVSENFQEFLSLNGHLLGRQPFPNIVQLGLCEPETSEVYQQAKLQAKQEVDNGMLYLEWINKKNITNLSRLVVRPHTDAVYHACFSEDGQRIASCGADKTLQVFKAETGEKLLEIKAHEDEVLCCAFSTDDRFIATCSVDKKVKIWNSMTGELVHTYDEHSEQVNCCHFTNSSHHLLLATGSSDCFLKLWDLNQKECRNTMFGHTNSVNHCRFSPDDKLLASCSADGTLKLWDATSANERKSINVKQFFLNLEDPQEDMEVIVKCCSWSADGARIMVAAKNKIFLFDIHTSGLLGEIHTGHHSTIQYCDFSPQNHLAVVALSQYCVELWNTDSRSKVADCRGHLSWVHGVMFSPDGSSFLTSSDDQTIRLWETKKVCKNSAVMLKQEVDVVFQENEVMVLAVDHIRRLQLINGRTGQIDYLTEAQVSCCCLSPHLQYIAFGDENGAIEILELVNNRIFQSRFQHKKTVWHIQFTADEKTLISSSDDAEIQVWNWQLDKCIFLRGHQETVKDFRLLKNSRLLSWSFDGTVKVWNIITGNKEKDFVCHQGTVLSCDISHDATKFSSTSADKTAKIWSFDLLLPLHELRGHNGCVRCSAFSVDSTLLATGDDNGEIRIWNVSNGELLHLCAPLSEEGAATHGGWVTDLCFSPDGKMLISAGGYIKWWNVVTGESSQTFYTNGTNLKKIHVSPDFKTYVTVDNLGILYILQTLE

[48] = target: T2, Estrogen receptor beta (Homo sapiens, UniProt Q92731);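 also: recombinant ER-beta bound to coactivator SRC1 peptide in presence of estradiol agonist; inhibitors block coactivator peptide binding and lower the FRET signal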
[49] = luciferase reporter signal suppression in cells – H4 neuroglioma cells, luminescence, dose response (AID 1990); assay type: functional, cell-based
[50] = test system: HEK293; test: cells; details: Homo sapiens; remark: listed apart in the source
[51] = target: Protein-tyrosine kinase 2-beta (Homo sapiens, UniProt Q14289);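 also: potency of inhibitors of PYK2 kinase phosphorylation of poly-GT substrate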
[52] = viability loss in HEK293T cells – cell-based, cherry-picks, cytotoxicity control for HIV Vif inhibitor project, dose response (AID 652208); assay type: functional
[53] = target: T1, Apoptotic protease-activating factor 1; assay type: functional
[54] = target: Mothers against decapentaplegic homolog 3 (Homo sapiens, UniProt P84022); test: inhibitors of SMAD-driven TGF-beta signaling – dose response (AID 715); assay type: functional
[55] = target: T2, Estrogen receptor beta; test: blockers of SRC-3 recruitment to ERβ – biochemical, ELISA, streptavidin-HRP readout, orthogonal assay, confirmation (AID 1060)
[56] = target: Photoreceptor-specific nuclear receptor (Homo sapiens, UniProt Q9Y5X4); test: ligands suppressing NR2E3 nuclear receptor activity – biochemical, TR-FRET, dose response (AID 463256); assay type: functional
[57] = alpha-synuclein stem-loop luciferase translation blockers – H4 neuroglioma cells, luminescence, confirmation (AID 1988); assay type: functional, cell-based
[58] = Luminescence Cell-Based Dose Response HTS to Identify Inhibitors of 5'UTR Stem-Loop Driven Prion Protein mRNA Translation in H4 Neuroglioblastoma Cells. [Related pubchem assays: 1827 (Project Summary), 1813 (Primary HTS)]; assay type: functional

Sequence of Mitogen-activated protein kinase 8 (P45983 whole entry): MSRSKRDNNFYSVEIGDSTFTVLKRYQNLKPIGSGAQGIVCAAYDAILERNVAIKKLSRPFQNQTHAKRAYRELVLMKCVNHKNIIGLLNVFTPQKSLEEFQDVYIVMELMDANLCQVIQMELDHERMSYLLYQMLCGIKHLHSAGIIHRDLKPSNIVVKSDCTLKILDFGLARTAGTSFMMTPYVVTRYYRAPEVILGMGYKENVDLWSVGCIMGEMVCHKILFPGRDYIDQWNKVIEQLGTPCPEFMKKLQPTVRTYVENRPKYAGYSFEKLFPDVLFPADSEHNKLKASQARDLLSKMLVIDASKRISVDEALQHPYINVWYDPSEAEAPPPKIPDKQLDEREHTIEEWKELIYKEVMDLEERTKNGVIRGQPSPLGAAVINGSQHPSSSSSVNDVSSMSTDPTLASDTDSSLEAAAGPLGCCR
T2 sequence (Q92731 whole entry): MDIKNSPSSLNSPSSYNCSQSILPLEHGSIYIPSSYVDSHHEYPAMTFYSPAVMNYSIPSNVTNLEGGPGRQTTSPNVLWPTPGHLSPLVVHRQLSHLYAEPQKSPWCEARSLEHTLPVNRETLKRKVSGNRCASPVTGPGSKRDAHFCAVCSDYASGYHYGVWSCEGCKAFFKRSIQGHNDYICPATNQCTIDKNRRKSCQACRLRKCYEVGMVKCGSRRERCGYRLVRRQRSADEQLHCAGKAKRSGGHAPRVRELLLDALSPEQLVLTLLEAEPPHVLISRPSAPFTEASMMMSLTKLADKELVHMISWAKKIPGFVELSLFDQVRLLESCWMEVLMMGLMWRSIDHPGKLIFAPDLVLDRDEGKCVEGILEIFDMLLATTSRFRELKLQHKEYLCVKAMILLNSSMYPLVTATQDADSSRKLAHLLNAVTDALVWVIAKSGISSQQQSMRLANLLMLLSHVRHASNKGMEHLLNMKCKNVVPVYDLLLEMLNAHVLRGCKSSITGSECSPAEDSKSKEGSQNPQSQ
Sequence of Serine/threonine-protein kinase pim-1 (P11309 whole entry): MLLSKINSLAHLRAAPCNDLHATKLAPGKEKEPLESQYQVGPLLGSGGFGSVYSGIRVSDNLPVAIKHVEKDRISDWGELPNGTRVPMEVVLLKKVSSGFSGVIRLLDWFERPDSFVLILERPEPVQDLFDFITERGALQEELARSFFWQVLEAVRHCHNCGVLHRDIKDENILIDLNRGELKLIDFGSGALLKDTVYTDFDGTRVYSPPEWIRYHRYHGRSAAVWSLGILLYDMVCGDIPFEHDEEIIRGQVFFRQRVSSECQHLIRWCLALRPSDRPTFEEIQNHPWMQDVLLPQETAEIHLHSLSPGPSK
Sequence of Dual specificity tyrosine-phosphorylation-regulated kinase 1B (Q9Y463 whole entry): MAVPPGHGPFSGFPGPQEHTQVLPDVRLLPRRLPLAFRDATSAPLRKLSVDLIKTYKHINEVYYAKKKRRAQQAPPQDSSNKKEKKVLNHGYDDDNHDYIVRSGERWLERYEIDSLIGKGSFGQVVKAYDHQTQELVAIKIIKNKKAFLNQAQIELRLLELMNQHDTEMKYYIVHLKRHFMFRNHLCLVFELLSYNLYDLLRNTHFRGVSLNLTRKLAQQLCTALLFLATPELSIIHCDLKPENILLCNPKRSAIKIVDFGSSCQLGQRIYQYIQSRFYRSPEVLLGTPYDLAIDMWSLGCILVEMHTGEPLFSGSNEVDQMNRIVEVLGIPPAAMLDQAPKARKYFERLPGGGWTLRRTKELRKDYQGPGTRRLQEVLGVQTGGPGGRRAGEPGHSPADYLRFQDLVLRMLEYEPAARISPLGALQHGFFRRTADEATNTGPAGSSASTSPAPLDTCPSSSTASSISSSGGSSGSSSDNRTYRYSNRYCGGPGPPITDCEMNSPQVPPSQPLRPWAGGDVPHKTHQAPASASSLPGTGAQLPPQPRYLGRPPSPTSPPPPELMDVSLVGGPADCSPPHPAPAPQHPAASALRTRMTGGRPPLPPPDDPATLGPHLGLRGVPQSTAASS
Sequence of High affinity nerve growth factor receptor (P04629 whole entry): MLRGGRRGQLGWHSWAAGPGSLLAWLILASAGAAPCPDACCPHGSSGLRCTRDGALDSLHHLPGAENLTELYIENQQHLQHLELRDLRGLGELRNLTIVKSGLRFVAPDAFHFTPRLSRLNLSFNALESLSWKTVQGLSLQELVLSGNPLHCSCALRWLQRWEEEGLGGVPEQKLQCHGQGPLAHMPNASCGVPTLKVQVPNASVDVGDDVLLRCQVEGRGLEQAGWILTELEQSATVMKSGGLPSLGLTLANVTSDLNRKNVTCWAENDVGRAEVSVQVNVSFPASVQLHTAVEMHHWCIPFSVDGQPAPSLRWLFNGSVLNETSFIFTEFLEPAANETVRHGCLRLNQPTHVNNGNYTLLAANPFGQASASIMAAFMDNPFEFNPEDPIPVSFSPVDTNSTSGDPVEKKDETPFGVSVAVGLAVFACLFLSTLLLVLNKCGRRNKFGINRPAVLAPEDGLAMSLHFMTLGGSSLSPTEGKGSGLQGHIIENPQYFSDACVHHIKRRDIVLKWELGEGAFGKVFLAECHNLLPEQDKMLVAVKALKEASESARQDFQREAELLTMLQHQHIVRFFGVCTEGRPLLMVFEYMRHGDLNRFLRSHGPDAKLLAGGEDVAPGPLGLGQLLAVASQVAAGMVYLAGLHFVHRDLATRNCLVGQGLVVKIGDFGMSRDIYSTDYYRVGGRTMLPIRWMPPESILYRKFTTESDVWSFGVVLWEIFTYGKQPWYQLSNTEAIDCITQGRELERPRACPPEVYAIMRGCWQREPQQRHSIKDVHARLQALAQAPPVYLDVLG
Sequence of Fibroblast growth factor receptor 1 (P11362 whole entry): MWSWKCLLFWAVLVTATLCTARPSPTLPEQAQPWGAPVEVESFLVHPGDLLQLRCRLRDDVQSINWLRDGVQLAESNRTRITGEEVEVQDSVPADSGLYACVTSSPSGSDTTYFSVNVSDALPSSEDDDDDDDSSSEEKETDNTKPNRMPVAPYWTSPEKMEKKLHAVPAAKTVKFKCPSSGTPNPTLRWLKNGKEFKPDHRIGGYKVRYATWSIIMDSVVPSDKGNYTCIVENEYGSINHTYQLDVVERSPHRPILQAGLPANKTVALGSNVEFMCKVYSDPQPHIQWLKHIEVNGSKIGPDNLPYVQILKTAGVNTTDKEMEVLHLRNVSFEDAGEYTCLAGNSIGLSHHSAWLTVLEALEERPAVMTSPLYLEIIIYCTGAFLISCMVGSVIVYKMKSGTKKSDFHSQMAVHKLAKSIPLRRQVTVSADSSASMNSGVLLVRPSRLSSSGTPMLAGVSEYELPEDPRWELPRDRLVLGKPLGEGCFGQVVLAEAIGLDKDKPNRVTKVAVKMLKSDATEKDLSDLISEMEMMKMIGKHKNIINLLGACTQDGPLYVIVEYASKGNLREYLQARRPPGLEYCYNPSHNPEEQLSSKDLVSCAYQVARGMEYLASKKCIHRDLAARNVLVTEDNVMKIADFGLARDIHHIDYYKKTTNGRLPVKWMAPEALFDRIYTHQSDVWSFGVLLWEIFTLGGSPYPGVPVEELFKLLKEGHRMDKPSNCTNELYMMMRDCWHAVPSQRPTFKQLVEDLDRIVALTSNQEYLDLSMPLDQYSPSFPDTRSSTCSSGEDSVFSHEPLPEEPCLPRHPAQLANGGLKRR
Sequence of Activated CDC42 kinase 1 (Q07912 whole entry, the tested form may be a part): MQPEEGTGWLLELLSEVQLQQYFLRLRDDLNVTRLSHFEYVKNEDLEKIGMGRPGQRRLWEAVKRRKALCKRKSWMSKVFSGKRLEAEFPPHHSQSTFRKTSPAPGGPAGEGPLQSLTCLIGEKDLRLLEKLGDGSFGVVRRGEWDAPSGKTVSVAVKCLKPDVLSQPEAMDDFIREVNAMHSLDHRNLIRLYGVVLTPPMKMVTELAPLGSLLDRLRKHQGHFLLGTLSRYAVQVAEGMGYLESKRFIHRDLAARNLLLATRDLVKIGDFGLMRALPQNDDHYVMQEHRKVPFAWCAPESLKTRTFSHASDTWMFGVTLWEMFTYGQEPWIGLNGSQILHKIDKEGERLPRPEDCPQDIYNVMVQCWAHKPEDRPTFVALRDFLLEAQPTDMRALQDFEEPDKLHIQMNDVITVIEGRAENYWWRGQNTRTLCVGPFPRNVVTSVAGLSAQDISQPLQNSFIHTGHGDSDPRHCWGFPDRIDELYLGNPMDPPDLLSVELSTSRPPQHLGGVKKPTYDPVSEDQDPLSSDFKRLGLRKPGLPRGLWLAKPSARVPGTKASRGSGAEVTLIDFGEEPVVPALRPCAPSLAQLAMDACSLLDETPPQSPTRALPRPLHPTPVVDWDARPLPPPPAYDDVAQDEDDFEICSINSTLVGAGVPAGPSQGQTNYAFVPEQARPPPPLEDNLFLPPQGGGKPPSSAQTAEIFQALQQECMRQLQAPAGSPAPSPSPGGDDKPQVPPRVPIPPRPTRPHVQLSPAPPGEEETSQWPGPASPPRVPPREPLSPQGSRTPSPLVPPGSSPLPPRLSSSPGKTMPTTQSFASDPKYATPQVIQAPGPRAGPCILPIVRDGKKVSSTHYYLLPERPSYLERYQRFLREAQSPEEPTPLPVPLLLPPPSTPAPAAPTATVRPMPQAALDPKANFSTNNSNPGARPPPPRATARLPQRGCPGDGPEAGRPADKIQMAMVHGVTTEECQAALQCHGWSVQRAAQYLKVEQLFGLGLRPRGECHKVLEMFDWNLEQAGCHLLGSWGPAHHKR
Sequence of Mothers against decapentaplegic homolog 3 (P84022 whole entry): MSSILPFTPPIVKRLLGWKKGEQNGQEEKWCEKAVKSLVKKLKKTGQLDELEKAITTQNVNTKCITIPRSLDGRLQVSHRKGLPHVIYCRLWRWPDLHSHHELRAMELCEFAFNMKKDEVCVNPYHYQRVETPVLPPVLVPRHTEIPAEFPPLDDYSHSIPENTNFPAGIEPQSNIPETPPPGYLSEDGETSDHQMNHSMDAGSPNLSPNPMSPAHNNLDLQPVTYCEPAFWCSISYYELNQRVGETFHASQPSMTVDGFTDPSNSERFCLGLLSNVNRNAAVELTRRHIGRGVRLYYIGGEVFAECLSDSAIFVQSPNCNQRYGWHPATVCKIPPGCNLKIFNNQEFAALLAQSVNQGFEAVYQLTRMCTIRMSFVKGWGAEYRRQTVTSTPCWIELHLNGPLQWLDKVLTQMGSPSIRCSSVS

## CS(=O)(=O)c1cccc(-c2cnn3c(C(N)=O)cc(-c4ccccc4)nc23)c1
[1]
  Ki: 2 µM (active)
[2]
  Ki: 1.26 µM (active)
[3]
  Ki: 5.01 µM (active)
[4]
  Ki: 2.51 µM (active)
[5]
  Ki: 2.51 µM (active)
[6]
  Ki: 3.98 µM (active)
[7]
  Ki: 3.98 µM (active)
[8]
  Ki: 2 µM (active)
[9]
  Ki: 2 µM (active)
[10]
  Ki: > 100 µM (inactive)

## Nc1n[nH]c2nc(Cl)sc12
[1]
  Ki: > 63.1 µM (inactive)
[11]
  Ki: 15.8 µM (active)
[12]
  Ki: 63.1 µM (active)
[13]
  Ki: > 79.4 µM (inactive)
[14]
  Ki: 50.1 µM (active)
[15]
  Ki: 25.1 µM (active)
[16]
  Ki: 12.6 µM (active)
[17]
  Ki: > 79.4 µM (inactive)
[18]
  Ki: 31.6 µM (active)
[19]
  Ki: 39.8 µM (active)
[20]
  Ki: > 79.4 µM (inactive)
[21]
  Ki: 5.01 µM (active)
[22]
  Ki: 31.6 µM (active)
[23]
  Ki: > 100 µM (inactive)
[24]
  Ki: 39.8 µM (active)
[6]
  Ki: 63.1 µM (active)
[25]
  Ki: > 100 µM (inactive)
[26]
  Ki: 39.8 µM (active)
[27]
  Ki: 50.1 µM (active)
[28]
  Ki: 39.8 µM (active)
[7]
  Ki: > 63.1 µM (inactive)
[29]
  Ki: 79.4 µM (active)
[30]
  Ki: 12.6 µM (active)
[31]
  Ki: > 79.4 µM (inactive)
[32]
  Ki: 6.31 µM (active)
[33]
  Ki: 79.4 µM (active)
[34]
  Ki: 39.8 µM (active)
[8]
  Ki: 25.1 µM (active)
[35]
  Ki: 50.1 µM (active)
[36]
  Ki: 20 µM (active)
[37]
  Ki: 50.1 µM (active)
[9]
  Ki: 15.8 µM (active)
[38]
  Ki: 39.8 µM (active)
[39]
  Ki: 6.31 µM (active)
[40]
  Ki: 15.8 µM (active)
[41]
  Ki: > 63.1 µM (inactive)
[42]
  Ki: 50.1 µM (active)
[43]
  Ki: 63.1 µM (active)
[44]
  Ki: 15.8 µM (active)

## O=C(Nc1ccc(-c2nc3cc(NC(=O)c4cccs4)ccc3[nH]2)cc1)c1cccs1
[45]
  IC50: 10.5 µM (not active)
[46]
  EC50: > 59.6 µM (inactive)
[47]
  IC50: 8.37 µM (active)
[48]
  IC50: 2.61 µM (active)
[49]
  EC50: 0.225 µM (active)
[50]
  EC50: > 59.6 µM (inactive)
[51]
  IC50: 3.97 µM (active)
[52]
  AC50: 23.1 µM (active)
[53]
  IC50: 8.21 µM (active)
[54]
  IC50: 64.4 µM (not active)
[55]
  IC50: > 109 µM (not active)
[56]
  IC50: 9.36 µM (active)
[57]
  EC50: 0.275 µM (active)
[58]
  EC50: 40.1 µM (active)
